Test system: 299254-011-R-J1-PDC complex spheroid viability
Experiment: Anticancer human tumor 299254-011-R-J1-PDC patient-derived melanoma cell line growth inhibition [POLQ]
Conditions: for IC50: curve of first compound; for viability, T/C: stronger effect = lower value
Procedure, shortened: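 PDC + HUVEC + MSC complex spheroids; POLQ inhibitors ± partner drugs; top conc. at/near clinical Cmax, else 10 microM (SN-38 1 microM), half-log dilutions; 37 degrees C, 5% CO2.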

[1] = second compound 0.0316 µM, first compound 0.0316 µM
[2] = second compound 0.0316 µM, first compound 0.1 µM
[3] = second compound 0.0316 µM, first compound 0.316 µM
[4] = second compound 0.0316 µM, first compound 1 µM
[5] = second compound 0.0316 µM, first compound 3.16 µM
[6] = second compound 0.0316 µM, first compound 10 µM
[7] = second compound 0.1 µM, first compound 0.0316 µM
[8] = second compound 0.1 µM, first compound 0.1 µM
[9] = second compound 0.1 µM, first compound 0.316 µM
[10] = second compound 0.1 µM, first compound 1 µM
[11] = second compound 0.1 µM, first compound 3.16 µM
[12] = second compound 0.1 µM, first compound 10 µM
[13] = second compound 0.316 µM, first compound 0.0316 µM
[14] = second compound 0.316 µM, first compound 0.1 µM
[15] = second compound 0.316 µM, first compound 0.316 µM
[16] = second compound 0.316 µM, first compound 1 µM
[17] = second compound 0.316 µM, first compound 3.16 µM
[18] = second compound 0.316 µM, first compound 10 µM
[19] = second compound 1 µM, first compound 0.0316 µM
[20] = second compound 1 µM, first compound 0.1 µM
[21] = second compound 1 µM, first compound 0.316 µM
[22] = second compound 1 µM, first compound 1 µM
[23] = second compound 1 µM, first compound 3.16 µM
[24] = second compound 1 µM, first compound 10 µM
[25] = second compound 3.16 µM, first compound 0.0316 µM
[26] = second compound 3.16 µM, first compound 0.1 µM
[27] = second compound 3.16 µM, first compound 0.316 µM
[28] = second compound 3.16 µM, first compound 1 µM
[29] = second compound 3.16 µM, first compound 3.16 µM
[30] = second compound 3.16 µM, first compound 10 µM
[31] = second compound 10 µM, first compound 0.0316 µM
[32] = second compound 10 µM, first compound 0.1 µM
[33] = second compound 10 µM, first compound 0.316 µM
[34] = second compound 10 µM, first compound 1 µM
[35] = second compound 10 µM, first compound 3.16 µM
[36] = second compound 10 µM, first compound 10 µM
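Note: spheroids exposed to drugs for one week before measurement.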
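Throughout, for viability, T/C: percent viability relative to DMSO vehicle control taken as 100%.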

## COc1cc(C2c3cc4c(cc3C(OC3OC5COC(C)OC5C(O)C3O)C3COC(=O)C23)OCO4)cc(OC)c1O (stereo not drawn) + COC1C(OC(N)=O)C(O)C(Oc2ccc3c(O)c(NC(=O)c4ccc(O)c(CC=C(C)C)c4)c(=O)oc3c2C)OC1(C)C
Second compound 0.0316 µM
  IC50: > 10 µM
Second compound 0.1 µM
  IC50: 9.11 µM
Second compound 0.316 µM
  IC50: > 10 µM
Second compound 1 µM
  IC50: 9.93 µM
Second compound 3.16 µM
  IC50: > 10 µM
Second compound 10 µM
  IC50: > 10 µM
[1]
  viability, T/C: 99%
[2]
  viability, T/C: 85.6%
[3]
  viability, T/C: 101%
[4]
  viability, T/C: 83.7%
[5]
  viability, T/C: 65.8%
[6]
  viability, T/C: 55.1%
[7]
  viability, T/C: 93.8%
[8]
  viability, T/C: 96.1%
[9]
  viability, T/C: 97.4%
[10]
  viability, T/C: 78.3%
[11]
  viability, T/C: 65.3%
[12]
  viability, T/C: 48.2%
[13]
  viability, T/C: 98%
[14]
  viability, T/C: 83.8%
[15]
  viability, T/C: 90.9%
[16]
  viability, T/C: 86.7%
[17]
  viability, T/C: 75.2%
[18]
  viability, T/C: 55.4%
[19]
  viability, T/C: 95.2%
[20]
  viability, T/C: 100%
[21]
  viability, T/C: 99.3%
[22]
  viability, T/C: 101%
[23]
  viability, T/C: 77.2%
[24]
  viability, T/C: 49.9%
[25]
  viability, T/C: 95.5%
[26]
  viability, T/C: 107%
[27]
  viability, T/C: 108%
[28]
  viability, T/C: 95.2%
[29]
  viability, T/C: 63.6%
[30]
  viability, T/C: 59.4%
[31]
  viability, T/C: 103%
[32]
  viability, T/C: 99.7%
[33]
  viability, T/C: 101%
[34]
  viability, T/C: 86.6%
[35]
  viability, T/C: 80.6%
[36]
  viability, T/C: 55.9%

## CCCS(=O)(=O)Nc1ccc(F)c(C(=O)c2c[nH]c3ncc(-c4ccc(Cl)cc4)cc23)c1F + Cc1cccc(N(C)C(=O)C2C(O)CCN2c2nc(C)cc(C(F)(F)F)c2C#N)c1
Second compound 0.0316 µM
  IC50: > 10 µM
Second compound 0.1 µM
  IC50: 8.99 µM
Second compound 0.316 µM
  IC50: 9.29 µM
Second compound 1 µM
  IC50: 9.29 µM
Second compound 3.16 µM
  IC50: > 10 µM
Second compound 10 µM
  IC50: > 10 µM
[1]
  viability, T/C: 117%
[2]
  viability, T/C: 95.7%
[3]
  viability, T/C: 119%
[4]
  viability, T/C: 109%
[5]
  viability, T/C: 123%
[6]
  viability, T/C: 50%
[7]
  viability, T/C: 104%
[8]
  viability, T/C: 107%
[9]
  viability, T/C: 109%
[10]
  viability, T/C: 114%
[11]
  viability, T/C: 115%
[12]
  viability, T/C: 44%
[13]
  viability, T/C: 107%
[14]
  viability, T/C: 112%
[15]
  viability, T/C: 104%
[16]
  viability, T/C: 110%
[17]
  viability, T/C: 103%
[18]
  viability, T/C: 46.3%
[19]
  viability, T/C: 93.1%
[20]
  viability, T/C: 103%
[21]
  viability, T/C: 103%
[22]
  viability, T/C: 107%
[23]
  viability, T/C: 109%
[24]
  viability, T/C: 46.4%
[25]
  viability, T/C: 110%
[26]
  viability, T/C: 124%
[27]
  viability, T/C: 108%
[28]
  viability, T/C: 108%
[29]
  viability, T/C: 117%
[30]
  viability, T/C: 52.6%
[31]
  viability, T/C: 100%
[32]
  viability, T/C: 110%
[33]
  viability, T/C: 113%
[34]
  viability, T/C: 107%
[35]
  viability, T/C: 110%
[36]
  viability, T/C: 52.4%

## O=C(c1cc(Cc2n[nH]c(=O)c3ccccc23)ccc1F)N1CCN(C(=O)C2CC2)CC1 + Cc1cccc(N(C)C(=O)C2C(O)CCN2c2nc(C)cc(C(F)(F)F)c2C#N)c1
Second compound 0.0316 µM
  IC50: > 10 µM
Second compound 0.1 µM
  IC50: > 10 µM
Second compound 0.316 µM
  IC50: > 10 µM
Second compound 1 µM
  IC50: > 10 µM
Second compound 3.16 µM
  IC50: > 10 µM
Second compound 10 µM
  IC50: > 10 µM
[1]
  viability, T/C: 90.3%
[2]
  viability, T/C: 85.9%
[3]
  viability, T/C: 98.3%
[4]
  viability, T/C: 104%
[5]
  viability, T/C: 99.6%
[6]
  viability, T/C: 101%
[7]
  viability, T/C: 93.5%
[8]
  viability, T/C: 108%
[9]
  viability, T/C: 95%
[10]
  viability, T/C: 97.5%
[11]
  viability, T/C: 110%
[12]
  viability, T/C: 77.4%
[13]
  viability, T/C: 93%
[14]
  viability, T/C: 94%
[15]
  viability, T/C: 95.9%
[16]
  viability, T/C: 104%
[17]
  viability, T/C: 106%
[18]
  viability, T/C: 83.8%
[19]
  viability, T/C: 125%
[20]
  viability, T/C: 101%
[21]
  viability, T/C: 108%
[22]
  viability, T/C: 117%
[23]
  viability, T/C: 102%
[24]
  viability, T/C: 80.2%
[25]
  viability, T/C: 96.4%
[26]
  viability, T/C: 111%
[27]
  viability, T/C: 99.6%
[28]
  viability, T/C: 115%
[29]
  viability, T/C: 92.8%
[30]
  viability, T/C: 74.2%
[31]
  viability, T/C: 102%
[32]
  viability, T/C: 94.5%
[33]
  viability, T/C: 83.2%
[34]
  viability, T/C: 89.2%
[35]
  viability, T/C: 92.9%
[36]
  viability, T/C: 69%

## CC1COCCN1c1cc(-c2ccnn2C)c2ccnc(-c3ccn[nH]3)c2n1 (stereo not drawn) + Cc1cccc(N(C)C(=O)C2C(O)CCN2c2nc(C)cc(C(F)(F)F)c2C#N)c1
Second compound 0.0316 µM
  IC50: 0.246 µM
Second compound 0.1 µM
  IC50: 0.217 µM
Second compound 0.316 µM
  IC50: 0.297 µM
Second compound 1 µM
  IC50: 0.221 µM
Second compound 3.16 µM
  IC50: 0.158 µM
Second compound 10 µM
  IC50: 0.153 µM
[1]
  viability, T/C: 95.1%
[2]
  viability, T/C: 73.4%
[3]
  viability, T/C: 42.1%
[4]
  viability, T/C: 31.5%
[5]
  viability, T/C: 27.3%
[6]
  viability, T/C: 22.5%
[7]
  viability, T/C: 77.4%
[8]
  viability, T/C: 77.2%
[9]
  viability, T/C: 36.9%
[10]
  viability, T/C: 30.4%
[11]
  viability, T/C: 20.2%
[12]
  viability, T/C: 19%
[13]
  viability, T/C: 104%
[14]
  viability, T/C: 73.5%
[15]
  viability, T/C: 48.6%
[16]
  viability, T/C: 30.8%
[17]
  viability, T/C: 23.6%
[18]
  viability, T/C: 14.6%
[19]
  viability, T/C: 111%
[20]
  viability, T/C: 73.1%
[21]
  viability, T/C: 38.2%
[22]
  viability, T/C: 28.2%
[23]
  viability, T/C: 22.1%
[24]
  viability, T/C: 19%
[25]
  viability, T/C: 82.8%
[26]
  viability, T/C: 59.1%
[27]
  viability, T/C: 36.5%
[28]
  viability, T/C: 24.6%
[29]
  viability, T/C: 24.7%
[30]
  viability, T/C: 20.1%
[31]
  viability, T/C: 76.4%
[32]
  viability, T/C: 59.1%
[33]
  viability, T/C: 34%
[34]
  viability, T/C: 29%
[35]
  viability, T/C: 20.7%
[36]
  viability, T/C: 19.4%
